Among the data in patent US11505526B2, “Aryl-piperidine derivatives” (Artax Biopharma Inc., priority 2017, dated 2022) are half-life, IC50 and inhibition values, retold here.

Data set [1] in a line: Microsomal stability, human liver microsomes. It counts as in vitro ADME. The settings on record: 0.5 mg/mL protein, read-out: Microsomal stability (T1/2 min) Human. How it is done: (§1) Intrinsic clearance studies are performed individually with mouse, rat and human liver microsomes at 0.5 mg/mL protein concentration. Briefly, for protein concentration 0.5 mg/mL assay, liver microsomal protein (12.5 uL), NAPDH (50 uL) and phosphate buffer (435 uL) are co-incubated (pre-incubation) in a 96-well deep well plate in an orbital incubator (10 min, 37° C.). Reactions are initiated by the addition of 2.5 uL of test item working stock solution (100 uM). Aliquots (50 uL) are withdrawn from the reaction tube at 0, 5, 10, 20 and 30 minutes and the reaction is immediately terminated by transferring to a 96 deep well plate containing 50 uL of acetonitrile. Verapamil is used as a positive control in mouse, rat and human liver microsomes. To the quenched samples internal standard is added and vortex mixed followed by centrifugation at 4000 rpm for 10 minutes and an aliquot of supernatant is taken for LC-MS/MS analysis. Samples are analyzed by a suitable fit-for-purpose multiple reaction monitoring method developed on LC-MS/MS using and API 4000 mass spectrometer to estimate the area ratio (analyte peak area/internal standard peak area).

In a further data set the target is CYP2C9 (Homo sapiens (Human), UniProt P11712). Kind of data set: CYP inhibition, CYP2C9. It counts as in vitro ADME. Particulars: microsomes, metabolite 4-hydroxy diclofenac. The protocol: (§2) For each isozyme, microsomes-buffer-substrate mixture (MBS mix) is prepared by premixing appropriate volumes of buffer, microsomes and substrate. MBS mixture (179 μL) is transferred to a 96-well reaction plate. An aliquot (1 μL) is spiked from corresponding wells of Test Item stock solution plate to reaction plate. The reaction plate is pre-incubated for 5 minutes at 37° C. Reaction is initiated by the addition of 20 μL of NADPH solution. Each experiment is performed in duplicate. Reaction plate is incubated for predetermined time at 37° C. and quenched using either 200 μL of acetonitrile (for CYP2C9, CYP2D6, CYP2C19 and CYP3A4) or 200 μL of a mixture of 70:30 1% formic acid:acetonitrile (for CYP1A2).
CYP2C9, sequence (P11712 whole entry): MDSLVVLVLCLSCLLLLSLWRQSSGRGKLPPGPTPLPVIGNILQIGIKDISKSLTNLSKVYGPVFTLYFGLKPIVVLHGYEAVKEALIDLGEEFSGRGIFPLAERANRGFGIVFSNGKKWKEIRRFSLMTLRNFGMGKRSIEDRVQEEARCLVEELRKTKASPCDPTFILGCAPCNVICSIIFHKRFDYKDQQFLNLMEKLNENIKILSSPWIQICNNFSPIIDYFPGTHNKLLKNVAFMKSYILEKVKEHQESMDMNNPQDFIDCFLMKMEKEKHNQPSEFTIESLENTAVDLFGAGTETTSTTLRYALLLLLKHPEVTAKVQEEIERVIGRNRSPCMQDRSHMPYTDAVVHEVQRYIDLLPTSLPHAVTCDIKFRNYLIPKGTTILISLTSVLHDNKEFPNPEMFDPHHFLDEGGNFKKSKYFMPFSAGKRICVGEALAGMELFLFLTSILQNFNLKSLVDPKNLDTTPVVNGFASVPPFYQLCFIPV

Data set [2] in a line: Microsomal stability, rat liver microsomes. Type of data set: in vitro ADME. The settings on record: 0.5 mg/mL protein, read-out: Microsomal stability (T1/2 min) Rat. How it is done:
as §1
For orientation: Liver microsomes are vesicles of endoplasmic reticulum, rich in cytochrome P450 enzymes.

The target in a further data set is CYP1A2 (Homo sapiens (Human), UniProt P05177). Nature of the data set: CYP inhibition, CYP1A2. Type of data set: in vitro ADME. Particulars: microsomes, metabolite acetaminophen. The protocol:
as §2

Data set [3] can be described thus: Microsomal stability, mouse liver microsomes. It counts as in vitro ADME. Particulars: 0.5 mg/mL protein, read-out: Microsomal stability (T1/2 min) Mouse. The protocol: as §1
The next data set has as its target CYP2D6 (Homo sapiens (Human), UniProt P10635). Nature of the data set: CYP inhibition, CYP2D6. It counts as in vitro ADME. Particulars: microsomes, metabolite dextrorphan. How it is done:
as §2

Another data set addresses CYP2C19 (Homo sapiens (Human), UniProt P33261). Nature of the data set: CYP inhibition, CYP2C19. Type of data set: in vitro ADME. Particulars: microsomes, metabolite 4′-hydroxy mephenytoin. How it is done:
as §2

For a further data set, the target named is CYP3A4 (Homo sapiens (Human), UniProt P08684). Nature of the data set: CYP inhibition, CYP3A4. It counts as in vitro ADME. Particulars: footnote not given, CYP3A4 metabolites monitored: 1-hydroxy midazolam, 6-β-hydroxy testosterone. How it is done:
as §2

For another data set, the target named is hERG (IKr current) (Homo sapiens (Human), UniProt Q12809). Nature of the data set: hERG inhibition, patch clamp (Port-a-Patch) on HEK cells stably transfected with the hERG clone, IKr current. Type of data set: cell-based. The settings on record: human, HEK cells stably transfected with the hERG clone, pH 7.4, IKr current. The protocol:
(§3) HEK cells stably transfected with the hERG clone are maintained at 37±2° C. in a 5% CO2 incubator. The cells are initially revived and grown in DMEM/F12+GlutaMAX-I medium supplemented with 9% fetal bovine serum (FBS) and antibiotics (Penicillin 100 IU/mL Streptomycin 100 μg/mL) (complete medium). Furthermore, the cells are continuously maintained and passaged in complete media in addition to the appropriate concentration of selection antibiotic (Geneticin (G418) 200 μg/mL) (Selection media). The cells are sub cultured every 2-3 days and medium is changed with complete medium at least a day before the experiment.
(§4) The cells are harvested on the day of experiment, dislodged and suspended in sterile filtered external solution (NaCl 140 mM, KCl 4 mM, MgCl2 1 mM, CaCl2 2 mM, D-Glucose monohydrate 5 mM, Hepes/NaOH 10 mM, pH 7.4, Osmolarity:298+/−5 mOsmol).
(§5) The NPC®-1 chip of the Port-a-Patch® is filled with 5 μL of internal solution (KCl 50 mM, NaCl 10 mM, KFl 60 mM, EGTA 20 mM, Hepes/KOH 10 mM, pH 7.2, Osmolarity: 285+/−5 mOsmol) and it is screwed onto the chip holder. The Faraday cage is then fixed on the chip holder, such that the external electrode is placed near to the chip aperture. 5 μL of external solution is added to the center of the aperture so that the external electrode is also in contact with the solution.
(§6) The experiment is be initiated. […] The suction automatically attracts a cell to the aperture, resulting in an increase in the chip resistance. When the cell is captured and the set threshold for the resistance is reached, the software recognizes this increase in resistance and proceeds to the next step of the sealing procedure. 20 μL of seal enhancer solution (NaCl 80 mM, KCl 4 mM, MgCl2 10 mM, CaCl2) 35 mM, Hepes (Na+salt)/HCl pH 7.4, Osmolarity: 298+/−5 mOsmol) is added 2-3 times. When the threshold resistance is reached, Patch Control automatically moves to the step of improving the seal. When the desirable resistance (Rpip) is reached, whole cell mode is attained and maintained.
(§7) Finally, hERG protocol is selected to run the experiment. The seal enhancer solution is replaced with 20 μL external solution after 2-4 rinses and then the test item is added (from lower to higher concentration) and checked for current inhibition. All the experiments are performed at ambient temperature (22-25° C.).
(§8) A schematic diagram (FIG. 3) of the Pulse protocol: Cells are stimulated every 10 seconds using the following protocol. The holding potential, sweep intervals and the depolarization/repolarization potentials are furnished in the table below.
(§9) Once the stable current is attained (at least 2-5 minutes) vehicle control is added and the current measured till the stable current is achieved. 3-5 consecutive data points from the last stable current phase are considered for further analysis. […] The system performs on-line analysis for several parameters which include functions that acquire data from traces and functions that perform calculations on the results of other functions.
A general note: Block of hERG is tested as a sign of cardiac risk.

The target in a further data set is hERG (Homo sapiens (Human), UniProt Q12809). The data set is described as above. Type of data set: cell-based. Particulars: concentrations tested 1, 3, 10 and 30 μM. The protocol:
as §3, §4, §5, §6, §7, §8, §9

[4] abbreviates: CYP3A4^a, read-out: CYP IC50 uM CYP3A4^a.
Setting [5] is: read-out: Percent Inhibition Mean (%).
The mark [6] stands for this setting: read-out: Percent Inhibition Trial I.
Where [7] appears, read: read-out: Percent Inhibition Trial II.

Each structure is given as a SMILES string. Where two headings read alike, the source gives them in different places. A value given as a limit tells only on which side of the number the result lay.

CYP1A2, sequence (P05177 whole entry): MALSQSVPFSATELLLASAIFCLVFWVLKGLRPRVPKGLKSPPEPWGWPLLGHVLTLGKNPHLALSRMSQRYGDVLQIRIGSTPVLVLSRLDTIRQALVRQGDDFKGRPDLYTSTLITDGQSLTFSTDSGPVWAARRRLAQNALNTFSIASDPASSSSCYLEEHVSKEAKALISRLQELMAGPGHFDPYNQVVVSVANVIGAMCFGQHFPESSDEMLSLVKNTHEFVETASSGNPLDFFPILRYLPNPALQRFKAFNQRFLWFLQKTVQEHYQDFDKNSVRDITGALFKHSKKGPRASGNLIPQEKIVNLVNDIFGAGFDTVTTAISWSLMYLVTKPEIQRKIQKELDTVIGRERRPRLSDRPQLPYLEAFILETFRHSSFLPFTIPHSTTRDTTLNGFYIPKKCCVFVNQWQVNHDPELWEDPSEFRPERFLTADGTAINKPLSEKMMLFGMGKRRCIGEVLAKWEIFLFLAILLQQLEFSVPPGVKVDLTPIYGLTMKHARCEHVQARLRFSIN
CYP3A4, sequence (P08684 whole entry): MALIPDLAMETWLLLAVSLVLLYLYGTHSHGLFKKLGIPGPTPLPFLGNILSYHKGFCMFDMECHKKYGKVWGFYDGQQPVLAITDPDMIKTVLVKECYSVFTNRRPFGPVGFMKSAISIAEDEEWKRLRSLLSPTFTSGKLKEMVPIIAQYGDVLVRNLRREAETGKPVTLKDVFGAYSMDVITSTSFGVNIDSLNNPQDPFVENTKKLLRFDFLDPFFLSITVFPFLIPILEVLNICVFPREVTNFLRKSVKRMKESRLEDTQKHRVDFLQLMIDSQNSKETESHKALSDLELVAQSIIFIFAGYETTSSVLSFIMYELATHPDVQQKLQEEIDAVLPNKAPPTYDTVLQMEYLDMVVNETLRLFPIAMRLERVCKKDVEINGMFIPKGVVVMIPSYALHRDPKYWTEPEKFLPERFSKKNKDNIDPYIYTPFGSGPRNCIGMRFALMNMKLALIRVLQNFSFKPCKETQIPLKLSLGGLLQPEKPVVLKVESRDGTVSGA
hERG (IKr current), sequence (Q12809 whole entry): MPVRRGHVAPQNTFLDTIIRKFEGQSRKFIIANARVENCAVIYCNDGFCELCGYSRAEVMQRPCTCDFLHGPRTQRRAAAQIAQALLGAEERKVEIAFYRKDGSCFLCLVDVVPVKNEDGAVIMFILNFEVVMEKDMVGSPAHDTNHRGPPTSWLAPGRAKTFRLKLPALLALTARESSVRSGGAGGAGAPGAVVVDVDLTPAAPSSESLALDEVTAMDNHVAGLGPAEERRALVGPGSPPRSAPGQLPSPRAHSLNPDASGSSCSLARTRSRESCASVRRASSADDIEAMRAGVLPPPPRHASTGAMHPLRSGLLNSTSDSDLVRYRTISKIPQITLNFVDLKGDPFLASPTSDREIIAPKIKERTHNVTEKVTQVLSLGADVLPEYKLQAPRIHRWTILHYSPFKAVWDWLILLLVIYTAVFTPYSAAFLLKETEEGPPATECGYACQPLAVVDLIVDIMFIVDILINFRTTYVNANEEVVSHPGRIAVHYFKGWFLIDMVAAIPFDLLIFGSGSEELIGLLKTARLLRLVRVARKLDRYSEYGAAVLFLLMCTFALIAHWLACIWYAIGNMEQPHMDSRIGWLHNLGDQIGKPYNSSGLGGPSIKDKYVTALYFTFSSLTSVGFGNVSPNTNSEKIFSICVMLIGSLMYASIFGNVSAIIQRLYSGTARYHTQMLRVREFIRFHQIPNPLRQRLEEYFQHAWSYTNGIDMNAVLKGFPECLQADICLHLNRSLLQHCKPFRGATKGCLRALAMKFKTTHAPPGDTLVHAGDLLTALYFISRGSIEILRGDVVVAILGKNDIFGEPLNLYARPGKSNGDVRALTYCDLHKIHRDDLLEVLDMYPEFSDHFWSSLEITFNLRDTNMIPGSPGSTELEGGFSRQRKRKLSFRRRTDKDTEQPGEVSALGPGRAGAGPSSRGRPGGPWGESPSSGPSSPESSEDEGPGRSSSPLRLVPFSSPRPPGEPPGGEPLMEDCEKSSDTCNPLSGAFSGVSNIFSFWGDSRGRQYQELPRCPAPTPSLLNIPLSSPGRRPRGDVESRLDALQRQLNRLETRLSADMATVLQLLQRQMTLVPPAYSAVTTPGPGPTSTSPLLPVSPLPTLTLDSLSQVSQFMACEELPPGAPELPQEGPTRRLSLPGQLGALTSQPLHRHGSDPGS
hERG, sequence (Q12809 whole entry): as above
CYP2D6, sequence (P10635 whole entry): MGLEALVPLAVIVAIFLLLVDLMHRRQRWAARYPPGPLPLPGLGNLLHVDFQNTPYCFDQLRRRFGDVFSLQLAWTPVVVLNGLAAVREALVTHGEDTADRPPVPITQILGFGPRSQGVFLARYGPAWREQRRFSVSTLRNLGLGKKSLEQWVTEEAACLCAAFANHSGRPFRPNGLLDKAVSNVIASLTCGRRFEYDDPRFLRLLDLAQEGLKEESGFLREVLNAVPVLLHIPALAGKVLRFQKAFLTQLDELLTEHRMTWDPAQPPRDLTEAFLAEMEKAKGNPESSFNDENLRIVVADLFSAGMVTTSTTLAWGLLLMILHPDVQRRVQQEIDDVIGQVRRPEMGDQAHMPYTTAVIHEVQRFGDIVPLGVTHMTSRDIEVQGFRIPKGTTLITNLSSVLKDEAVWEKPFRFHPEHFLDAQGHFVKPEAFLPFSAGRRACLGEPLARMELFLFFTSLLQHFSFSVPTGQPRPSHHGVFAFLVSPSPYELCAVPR
CYP2C19, sequence (P33261 whole entry): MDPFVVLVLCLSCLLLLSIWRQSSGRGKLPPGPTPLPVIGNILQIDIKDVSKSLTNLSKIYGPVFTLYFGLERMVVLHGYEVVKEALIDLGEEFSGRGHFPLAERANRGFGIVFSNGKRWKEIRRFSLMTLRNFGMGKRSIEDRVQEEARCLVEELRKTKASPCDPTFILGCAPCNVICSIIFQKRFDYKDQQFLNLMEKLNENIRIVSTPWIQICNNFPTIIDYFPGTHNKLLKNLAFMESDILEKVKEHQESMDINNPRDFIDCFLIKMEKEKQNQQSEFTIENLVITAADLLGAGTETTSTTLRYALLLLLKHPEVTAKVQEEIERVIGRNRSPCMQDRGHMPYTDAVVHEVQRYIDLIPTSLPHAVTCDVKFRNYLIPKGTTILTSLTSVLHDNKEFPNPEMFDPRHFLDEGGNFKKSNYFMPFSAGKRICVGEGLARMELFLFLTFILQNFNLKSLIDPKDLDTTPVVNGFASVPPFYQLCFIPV

As to `O=C(c1ccc(Cl)cc1)C1CCCN(C(=O)c2ccccc2)C1` (stereo not drawn) [Compound V-4], the half-life at 0.5 µM in data set [1] is 10 to 30 min; in [2], less than 10 min; in [3], less than 10 min. Besides, the IC50 (as a rule, the concentration that inhibits the measured activity by half) was 5 to 20 µM at CYP2C9; not above 5 µM at CYP1A2; not above 5 µM at CYP2D6; not above 5 µM on CYP2C19; more than 50 µM at CYP3A4 (setting [4]); 20 to 50 µM at CYP3A4 (read-out: CYP IC50 uM CYP3A4^b). The compound further gave an IC50 against hERG of 76 µM. Also, the inhibition – broadly, the change of the read-out against control, counted positive when it falls – at 1 µM on hERG (IKr current) (setting [5]) was determined as 13.2%; on hERG (IKr current) (setting [6]) it was 16.2%; on hERG (IKr current) (setting [7]) it was 10.2%. For the same compound, the inhibition at 3 µM was determined as 18.8% at hERG (IKr current) (setting [5]), 20.5% on hERG (IKr current) (setting [6]) and 17% on hERG (IKr current) (setting [7]). In addition, the values for the inhibition at 10 µM on hERG (IKr current) (setting [5]), on hERG (IKr current) (setting [6]) and on hERG (IKr current) (setting [7]) were 23.1%, 26.4% and 19.8%, respectively. Further, the figures for the inhibition at 30 µM on hERG (IKr current) (setting [5]), on hERG (IKr current) (setting [6]) and at hERG (IKr current) (setting [7]) were 39.1%, 39.5% and 38.7%, respectively.
`O=C(c1ccncc1)C1CCCN(Cc2ccccc2)C1` (stereo not drawn) [IV-6]: the half-life at 0.5 µM in [1] is 10 to 30 min; in data set [2], less than 10 min; in [3], less than 10 min. Further, the IC50 was 5 to 20 µM on CYP2C9; 20 to 50 µM at CYP1A2; not above 5 µM at CYP2D6; not above 5 µM at CYP2C19; not above 5 µM on CYP3A4 (setting [4]); 5 to 20 µM at CYP3A4 (read-out: CYP IC50 uM CYP3A4^b). The midpoint of inhibition at hERG, the IC50, lay at 44.6 µM. Also, the results for the inhibition at 1 µM at hERG (IKr current) (setting [5]), at hERG (IKr current) (setting [6]) and on hERG (IKr current) (setting [7]) were 2.37%, 0% and 4.74%, respectively. In addition, the inhibition at 3 µM on hERG (IKr current) (setting [5]), on hERG (IKr current) (setting [6]) and on hERG (IKr current) (setting [7]) was 0% in each case. The figures for the inhibition at 10 µM at hERG (IKr current) (setting [5]), on hERG (IKr current) (setting [6]) and on hERG (IKr current) (setting [7]) were 10.2%, 7.16% and 13.1%, respectively. Besides, the inhibition at 30 µM came out at 35.5% at hERG (IKr current) (setting [5]), 39.9% on hERG (IKr current) (setting [6]) and 31.1% at hERG (IKr current) (setting [7]).
As to `O=C(c1ncccn1)C1CCCN(Cc2ccccc2)C1` (stereo not drawn) [IV-7], the half-life at 0.5 µM was not below 30 min in [1], 10 to 30 min in [2] and not below 30 min in data set [3]. Also, the IC50 at CYP2C9 was more than 50 µM; at CYP1A2, more than 50 µM; at CYP2D6 it was 5 to 20 µM; at CYP2C19 it was more than 50 µM; at CYP3A4 (setting [4]) it was more than 50 µM; at CYP3A4 (read-out: CYP IC50 uM CYP3A4^b), more than 50 µM. Moreover, on hERG, the IC50 came out at 73.2 µM. The inhibition at 1 µM on hERG (IKr current) (setting [5]), at hERG (IKr current) (setting [6]) and on hERG (IKr current) (setting [7]) was 0% in each case. Also, the inhibition at 3 µM at hERG (IKr current) (setting [5]) was 0.73%; on hERG (IKr current) (setting [6]), 1.46%; at hERG (IKr current) (setting [7]), 0%. The inhibition at 10 µM on hERG (IKr current) (setting [5]) worked out at 1.99%; at hERG (IKr current) (setting [6]), 3.44%; on hERG (IKr current) (setting [7]), 0.54%. The figures for the inhibition at 30 µM at hERG (IKr current) (setting [5]), at hERG (IKr current) (setting [6]) and on hERG (IKr current) (setting [7]) were 21.6%, 17.2% and 25.9%, respectively.
